{"source": "patent US20020091095A1", "about": "“Modulation of Fas and FasL expression” (priority 1999, published 2002)", "key": {"[1]": {"test_system": "EL-4 murine T lymphoma cells", "experiment": "EL-4 murine T lymphoma implanted in C57/BL6 lpr/lpr mice", "format": "in vivo", "procedure": "EL-4 murine T lymphoma cells are implanted into C57/BL6 lpr/lpr (Fas negative mice). The mice are divided into 30 groups of 10 mice. On day 0, group 1 mice receive saline, group 2 mice receive 1, 10 or 100 mg/kg of SEQ. ID NO:5, group 3 mice receive 1, 10 or 100 mg/kg of SEQ. ID NO:16, group 4 receive 1, 10 or 100 mg/kg of SEQ. ID NO:17, group 5 mice receive 1, 10 or 100 mg/kg of SEQ. ID NO: 18, group 6 mice receive anti-Fas antibodies, group 7 mice receive 1, 10 or 100 mg/kg of SEQ. ID NO:5 +anti-Fas antibodies, group 8 mice receive 1, 10 or 100 mg/kg of SEQ. ID NO: 16 +anti-Fas antibodies, group 9 receive 1, 10 or 100 mg/kg of SEQ. ID NO:17 +anti-Fas antibodies, group 10 mice receive 1, 10 or 100 mg/kg of SEQ. ID NO:18 +anti-Fas antibodies. In these different groups, anti-Fas antibodies are administered at any dose in the range of about 0.003 to about 0.3 mg/kg. […] The efficacy of the SEQ. ID NO:5, the SEQ. ID NO: 16 and the SEQ. ID NO: 17 is dose-dependent."}, "FasL [2]": {"test_system": "FasL", "experiment": "FasL expression at the cell surface by flow cytometry, T-24 cells", "format": "cell-based, human", "details": "T-24 bladder cancer cells, 100 μg/ml sequence, 48 h, treated vs control cells", "summary_of_the_method": "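T-24 bladder cancer cells (p53-mutant, human) at 1.0×10^5 cells/ml were exposed for 48 h at 37 °C to 100 μg/ml […] of 6-base sequences or to no sequence. Fas and FasL were stained with FITC- and PE-labelled monoclonal antibodies and read by flow cytometry. Values are % increase versus untreated cells.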"}, "EAE": {"test_system": "EAE", "experiment": "EAE in (SJL/J×PL/J) F1 mice induced with myelin basic protein", "format": "in vivo", "procedure": "Female (SJL/J×PL/J) F1 mice are injected subcutaneously in both femoral regions with an emulsion containing 0.5 mg of myelin basic protein (MBP) mixed with complete Freund's adjuvant. After 24 h, 400 ng of Bordetella pertussis toxin is administered intraperitoneally. On the day of onset (day 0), group 1 mice receive saline, group 2 mice receive 1, 10 or 100 mg/kg of SEQ. ID NO:5, group 3 mice receive 1, 10 or 100 mg/kg of SEQ. ID NO:16, group 4 mice receive 1, 10 or 100 mg/kg of SEQ. ID NO:17, group 5 mice receive 1, 10 or 100 mg/kg of SEQ. ID NO: 18, group 6 mice receive anti-Fas antibodies, group 7 mice receive 1, 10 or 100 mg/kg of SEQ. ID NO:5 +anti-Fas antibodies, group 8 mice receive 1, 10 or 100 mg/kg of SEQ. ID NO:16 +anti-Fas antibodies, group 9 receive 1, 10 or 100 mg/kg of SEQ. ID NO:17 +anti-Fas antibodies, group 10 mice receive 1, 10 or 100 mg/kg of SEQ. ID NO: 18 +anti-Fas antibodies for 3 days by intracistemal administration (20 μg/day). In these different groups, anti-Fas antibodies are administered at any dose in the range of about 0.003 to about 0.3 mg/kg. […] The efficacy of the SEQ. ID NO:5, the SEQ. ID NO: 16 and the SEQ. ID NO: 17 is dose-dependent."}, "Fas [3]": {"test_system": "Fas", "experiment": "Fas expression at the cell surface by flow cytometry, SK-OV-3 cells", "format": "cell-based, human", "details": "SK-OV-3 ovarian cancer cells, 100 μg/ml sequence, 48 h, treated vs control cells", "summary_of_the_method": "(§1)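 Cells at 2×10^5 cells/ml were treated 48 h at 37 °C, 5% CO2 with 100 μg/ml (5.5 μM) sequence or none. Surface Fas and FasL were stained with FITC anti-Fas and PE anti-FasL antibodies and read by flow cytometry. Values are % increase in expression over untreated cells.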"}, "Fas [4]": {"test_system": "Fas", "experiment": "Fas expression at the cell surface by flow cytometry, LNCaP cells", "format": "cell-based, human", "details": "LNCaP prostate cancer cells, 100 μg/ml sequence, 48 h, treated vs control cells", "summary_of_the_method": "(§2)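 Cells at 2×10^5 cells/ml were treated 48 h at 37° C with 100 μg/ml (5.5 μM) of the sequences or left untreated. Surface Fas and FasL were stained with FITC anti-Fas and PE anti-FasL antibodies and measured by flow cytometry. Values are % increase in expression over control cells.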"}, "FasL [5]": {"test_system": "FasL", "experiment": "FasL expression at the cell surface by flow cytometry, MCF-7 cells", "format": "cell-based, human", "details": "MCF-7 breast cancer cells, 100 μg/ml sequence, 48 h, treated vs control cells", "summary_of_the_method": "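MCF-7 cells at 2×10^5 cells/ml incubated 48 h at 37° C, 5% CO2 with 0 or 100 μg/ml (5.5 μM) of the sequences. Surface Fas and FasL measured by flow cytometry with FITC anti-Fas and PE anti-FasL antibodies; values as % increase in treated versus control cells.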"}, "FasL [6]": {"test_system": "FasL", "experiment": "FasL expression at the cell surface by flow cytometry, SK-OV-3 cells", "format": "cell-based, human", "details": "SK-OV-3 ovarian cancer cells, 100 μg/ml sequence, 48 h, treated vs control cells", "summary_of_the_method": "as §1"}, "Fas [7]": {"test_system": "Fas", "experiment": "Fas expression at the cell surface by flow cytometry, UMUC-3 cells", "format": "cell-based, human", "details": "UMUC-3 bladder cancer cells, 100 μg/ml sequence, 48 h, treated vs control cells", "summary_of_the_method": "(§3)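 Cells at 2×10^5 cells/ml treated 48 h at 37° C, 5% CO2 with 100 μg/ml (5.5 μM) sequence or 0 μg/ml control. Surface Fas (FITC) and FasL (PE) antibody-stained and read by flow cytometry. Values are % increase over control cells.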"}, "FasL [8]": {"test_system": "FasL", "experiment": "FasL expression at the cell surface by flow cytometry, LNCaP cells", "format": "cell-based, human", "details": "LNCaP prostate cancer cells, 100 μg/ml sequence, 48 h, treated vs control cells", "summary_of_the_method": "as §2"}, "[9]": {"test_system": "UMUC-3 bladder cancer cells", "experiment": "Inhibition of UMUC-3 bladder cancer cell proliferation (MTT reduction)", "format": "cell-based, human", "details": "for % INHIBITION of cell proliferation: UMUC-3, 48 h", "procedure": "UMUC-3 bladder cancer cells were incubated for 48 hours with 0.00, 0.02 and 0.20 μg/ml of agonistic anti-Fas monoclonal antibodies (clone CH-11: Coulter-Immunotech, Marseille, France) +0 or 10 μg/ml of SEQ ID NO:5. Cell proliferation was measured using dimethylthiazol-diphenyltetrazolium (MTT) reduction (Mosman et al. J. Immunol. Methods 65:55, 1983). MTT was measured at a wavelength of 570 nm using a multiplate spectrophotometer reader (ELX800, Bio-TEK Instruments Inc., Winooski, Vt.)."}, "FasL [10]": {"test_system": "FasL", "experiment": "FasL expression at the cell surface by flow cytometry, PBMCs", "format": "cell-based, human", "details": "100 μg/ml sequence, 48 h, treated vs control cells", "summary_of_the_method": "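PBMCs isolated by Ficoll-Hypaque gradient were seeded at 2×10^5 cells/ml and exposed for 48 h at 37 °C to 0 or 100 μg/ml (5.5 μM) of the sequences. Surface Fas and FasL were stained with FITC anti-Fas and PE anti-FasL antibodies and analysed by flow cytometry, reported as % increase over untreated cells.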"}, "FasL [11]": {"test_system": "FasL", "experiment": "FasL expression at the cell surface by flow cytometry, UMUC-3 cells", "format": "cell-based, human", "details": "UMUC-3 bladder cancer cells, 100 μg/ml sequence, 48 h, treated vs control cells", "summary_of_the_method": "as §3"}}, "data": [{"sequence": "GGGTGG [SEQ ID NO:5]", "values": [{"measurement": "efficacy, dose dependence", "setting": "[1]; 1, 10 or 100 mg/kg", "result": "dose-dependent"}, {"measurement": "tumor mass", "setting": "[1]; sequence 1, 10 or 100 mg/kg + anti-Fas antibodies, vs all other groups", "result": "least tumor mass"}, {"measurement": "tumor mass", "setting": "[1]; single agent (sequence 1, 10 or 100 mg/kg, or anti-Fas antibodies) vs group 1 (saline)", "result": "less tumor mass"}, {"measurement": "% INCREASE FasL", "setting": "FasL [2]", "result": 13, "unit": "%"}, {"measurement": "efficacy, dose dependence", "setting": "EAE; 1, 10 or 100 mg/kg", "result": "dose-dependent"}, {"measurement": "progression of EAE", "setting": "EAE; sequence 1, 10 or 100 mg/kg + anti-Fas antibodies, for 3 days", "result": "least progression of EAE"}, {"measurement": "% INCREASE Fas", "setting": "Fas [3]", "result": 3, "unit": "%"}, {"measurement": "% INCREASE Fas", "setting": "Fas [4]", "result": 15, "unit": "%"}, {"measurement": "% INCREASE FasL", "setting": "FasL [5]", "result": 81, "unit": "%"}, {"measurement": "% INCREASE FasL", "setting": "FasL [6]", "result": "−31", "unit": "%"}, {"measurement": "% INCREASE Fas", "setting": "Fas [7]", "result": 67, "unit": "%"}, {"measurement": "% INCREASE FasL", "setting": "FasL [8]", "result": "−1", "unit": "%"}, {"measurement": "effect on the inhibitory activity of agonistic anti-Fas antibodies on cell proliferation", "setting": "[9]; UMUC-3, 0.02 and 0.2 μg/ml anti-Fas antibodies, 10 μg/ml sequence", "result": "potentiated"}, {"measurement": "% INHIBITION of cell proliferation", "setting": "[9]; 10 μg/ml sequence + anti-Fas antibodies 0.02 μg/ml", "result": 38, "unit": "%"}, {"measurement": "% INHIBITION of cell proliferation", "setting": "[9]; 10 μg/ml sequence + anti-Fas antibodies 0.02 μg/ml (third column)", "result": 44, "unit": "%"}, {"measurement": "% INHIBITION of cell proliferation", "setting": "[9]; 10 μg/ml sequence, anti-Fas antibodies 0.0 μg/ml", "result": 23, "unit": "%"}, {"measurement": "% INCREASE FasL", "setting": "FasL [10]", "result": "−20", "unit": "%"}, {"measurement": "% INCREASE FasL", "setting": "FasL [11]", "result": 143, "unit": "%"}]}]}
